Source: publication PMC7486443, “Generation of Phenothiazine with Potent Anti-TLK1 Activity for Prostate Cancer Therapy” (iScience, 2020)

What was measured:
Experiment in all cases: biochemical
Design in all cases: DiscoverX KINOMEscan scanMAX competition binding panel, single concentration, percent of control; remaining binding: dose or concentration left out as unconfirmed
Conditions in all cases: KINOMEscan binding, percent of control; read-out: Table S4_SCANMAX REPORT - related to Fig. 1 / Percent Control
[1] = biological target: T1, ABL1(F317I)-nonphosphorylated (Homo sapiens, UniProt P00519, F317I)
T1 construct: nonphosphorylated

[2] = biological target: ACVR2A (Homo sapiens, UniProt P27037)
[3] = biological target: T2, ASK1 (Homo sapiens, UniProt Q99683)
T2 construct: gene MAP3K5

[4] = biological target: BRSK1 (Homo sapiens, UniProt Q8TDC3)
[5] = biological target: CAMK2A (Homo sapiens, UniProt Q9UQM7)
[6] = biological target: CSNK2A1 (Homo sapiens, UniProt P68400)
[7] = biological target: T3, DLK (Homo sapiens, UniProt Q12852)
T3 construct: gene MAP3K12

[8] = biological target: T4, DMPK2 (Homo sapiens, UniProt Q6DT37)
T4 construct: gene CDC42BPG

[9] = biological target: EGFR(T790M) (Homo sapiens, UniProt P00533, T790M)
[10] = biological target: ERBB3 (Homo sapiens, UniProt P21860)
[11] = biological target: T5, IKK-alpha (Homo sapiens, UniProt O15111)
T5 construct: gene CHUK

[12] = biological target: T6, JNK3 (Homo sapiens, UniProt P53779)
T6 construct: gene MAPK10

[13] = biological target: MYO3B (Homo sapiens, UniProt Q8WXR4)
[14] = biological target: NEK9 (Homo sapiens, UniProt Q8TD19)
[15] = biological target: T7, QSK (Homo sapiens, UniProt Q9Y2K2)
T7 construct: gene SIK3

[16] = biological target: RIOK3 (Homo sapiens, UniProt O14730)
[17] = biological target: T8, RSK1(Kin.Dom.2-C-terminal) (Homo sapiens, UniProt Q15418)
T8 construct: gene RPS6KA1; Kin.Dom.2-C-terminal

[18] = biological target: TGFBR2 (Homo sapiens, UniProt P37173)

T7 sequence (Q9Y2K2 whole entry): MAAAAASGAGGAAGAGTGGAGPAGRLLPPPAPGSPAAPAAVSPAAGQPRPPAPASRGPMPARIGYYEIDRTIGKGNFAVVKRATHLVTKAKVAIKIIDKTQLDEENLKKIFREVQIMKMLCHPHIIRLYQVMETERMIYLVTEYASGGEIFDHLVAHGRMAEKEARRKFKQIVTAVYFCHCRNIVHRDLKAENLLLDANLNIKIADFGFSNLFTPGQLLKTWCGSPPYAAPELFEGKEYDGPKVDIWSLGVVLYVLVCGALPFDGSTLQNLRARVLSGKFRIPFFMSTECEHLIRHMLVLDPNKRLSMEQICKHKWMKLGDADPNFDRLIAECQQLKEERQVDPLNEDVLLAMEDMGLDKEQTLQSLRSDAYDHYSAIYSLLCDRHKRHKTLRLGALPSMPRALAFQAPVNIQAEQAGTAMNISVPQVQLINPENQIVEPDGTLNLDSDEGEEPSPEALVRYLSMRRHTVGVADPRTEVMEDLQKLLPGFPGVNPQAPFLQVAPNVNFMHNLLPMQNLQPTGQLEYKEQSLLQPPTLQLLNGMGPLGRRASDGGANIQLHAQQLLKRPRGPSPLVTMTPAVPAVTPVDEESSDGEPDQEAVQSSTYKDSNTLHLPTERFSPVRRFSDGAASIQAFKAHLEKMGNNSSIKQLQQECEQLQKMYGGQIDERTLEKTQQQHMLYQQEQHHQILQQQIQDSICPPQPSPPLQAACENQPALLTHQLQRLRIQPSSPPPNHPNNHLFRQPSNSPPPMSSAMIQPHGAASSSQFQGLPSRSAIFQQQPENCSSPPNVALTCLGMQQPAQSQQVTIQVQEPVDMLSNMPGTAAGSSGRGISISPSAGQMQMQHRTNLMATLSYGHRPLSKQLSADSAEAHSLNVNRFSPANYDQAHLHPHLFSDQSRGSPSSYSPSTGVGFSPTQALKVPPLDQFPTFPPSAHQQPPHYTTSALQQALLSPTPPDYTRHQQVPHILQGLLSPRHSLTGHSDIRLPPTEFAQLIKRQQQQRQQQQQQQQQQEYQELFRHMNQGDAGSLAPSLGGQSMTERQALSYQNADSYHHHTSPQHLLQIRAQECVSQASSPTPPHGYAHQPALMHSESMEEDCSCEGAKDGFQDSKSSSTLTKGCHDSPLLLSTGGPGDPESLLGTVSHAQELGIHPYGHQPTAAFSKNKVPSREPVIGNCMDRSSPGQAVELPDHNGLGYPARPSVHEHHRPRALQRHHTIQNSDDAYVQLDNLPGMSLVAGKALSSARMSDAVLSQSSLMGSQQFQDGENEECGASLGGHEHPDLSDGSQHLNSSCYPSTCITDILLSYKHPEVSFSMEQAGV
MYO3B, sequence (Q8WXR4 whole entry): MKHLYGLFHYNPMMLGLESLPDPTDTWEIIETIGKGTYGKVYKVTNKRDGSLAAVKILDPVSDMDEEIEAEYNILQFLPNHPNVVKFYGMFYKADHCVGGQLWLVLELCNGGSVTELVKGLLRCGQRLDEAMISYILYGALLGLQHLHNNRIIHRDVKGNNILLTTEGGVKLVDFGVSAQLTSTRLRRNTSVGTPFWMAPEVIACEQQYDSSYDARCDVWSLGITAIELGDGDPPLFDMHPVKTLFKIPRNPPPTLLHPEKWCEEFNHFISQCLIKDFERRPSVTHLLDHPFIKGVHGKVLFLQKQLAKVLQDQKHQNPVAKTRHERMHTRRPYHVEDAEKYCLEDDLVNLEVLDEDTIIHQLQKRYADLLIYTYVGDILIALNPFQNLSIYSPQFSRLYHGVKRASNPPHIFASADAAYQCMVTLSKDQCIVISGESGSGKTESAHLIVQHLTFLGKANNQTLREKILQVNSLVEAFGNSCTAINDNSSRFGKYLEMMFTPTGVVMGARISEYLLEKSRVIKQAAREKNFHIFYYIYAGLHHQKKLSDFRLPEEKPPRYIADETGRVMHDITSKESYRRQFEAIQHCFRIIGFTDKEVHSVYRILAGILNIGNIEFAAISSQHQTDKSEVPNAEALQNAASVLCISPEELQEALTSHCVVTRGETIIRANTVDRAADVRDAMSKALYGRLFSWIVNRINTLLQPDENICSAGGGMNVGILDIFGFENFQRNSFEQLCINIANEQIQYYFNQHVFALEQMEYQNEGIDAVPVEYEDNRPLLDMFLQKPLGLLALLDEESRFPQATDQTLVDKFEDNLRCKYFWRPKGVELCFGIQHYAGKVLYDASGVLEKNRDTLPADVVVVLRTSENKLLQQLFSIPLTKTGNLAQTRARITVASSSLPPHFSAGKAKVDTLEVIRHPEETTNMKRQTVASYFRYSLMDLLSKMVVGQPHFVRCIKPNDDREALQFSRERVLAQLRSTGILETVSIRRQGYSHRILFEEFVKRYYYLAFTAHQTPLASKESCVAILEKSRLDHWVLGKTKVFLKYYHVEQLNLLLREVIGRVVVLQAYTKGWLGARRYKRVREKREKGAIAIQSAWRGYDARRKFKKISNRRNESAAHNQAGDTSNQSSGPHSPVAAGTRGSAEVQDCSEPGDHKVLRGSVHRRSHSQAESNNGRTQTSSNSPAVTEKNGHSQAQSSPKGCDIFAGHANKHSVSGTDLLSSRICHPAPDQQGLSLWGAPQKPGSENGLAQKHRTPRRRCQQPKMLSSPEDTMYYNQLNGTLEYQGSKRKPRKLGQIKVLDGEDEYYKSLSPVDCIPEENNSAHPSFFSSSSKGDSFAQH
T3 sequence (Q12852 whole entry): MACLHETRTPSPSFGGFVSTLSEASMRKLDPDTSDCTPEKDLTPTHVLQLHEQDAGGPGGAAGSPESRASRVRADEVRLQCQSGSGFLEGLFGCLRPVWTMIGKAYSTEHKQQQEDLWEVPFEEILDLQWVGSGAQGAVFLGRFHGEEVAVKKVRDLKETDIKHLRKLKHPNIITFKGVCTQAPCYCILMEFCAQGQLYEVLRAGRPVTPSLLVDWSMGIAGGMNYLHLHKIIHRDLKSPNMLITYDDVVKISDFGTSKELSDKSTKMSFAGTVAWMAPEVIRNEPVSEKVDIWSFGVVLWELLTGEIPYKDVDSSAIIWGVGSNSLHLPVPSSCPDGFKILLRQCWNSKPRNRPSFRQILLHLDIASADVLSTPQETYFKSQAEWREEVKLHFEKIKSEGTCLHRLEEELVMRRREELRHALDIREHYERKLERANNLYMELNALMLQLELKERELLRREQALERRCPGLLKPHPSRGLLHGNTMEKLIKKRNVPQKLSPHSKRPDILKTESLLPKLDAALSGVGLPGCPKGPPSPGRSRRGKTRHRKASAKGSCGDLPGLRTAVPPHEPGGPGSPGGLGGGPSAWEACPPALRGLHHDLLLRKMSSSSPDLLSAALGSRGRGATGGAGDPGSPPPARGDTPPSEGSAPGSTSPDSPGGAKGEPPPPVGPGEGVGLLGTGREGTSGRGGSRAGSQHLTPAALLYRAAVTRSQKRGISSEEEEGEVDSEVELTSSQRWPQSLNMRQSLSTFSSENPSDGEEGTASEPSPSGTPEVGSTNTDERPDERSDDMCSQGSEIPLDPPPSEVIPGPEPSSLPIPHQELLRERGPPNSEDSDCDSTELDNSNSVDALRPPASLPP
T8 sequence (Q15418 whole entry): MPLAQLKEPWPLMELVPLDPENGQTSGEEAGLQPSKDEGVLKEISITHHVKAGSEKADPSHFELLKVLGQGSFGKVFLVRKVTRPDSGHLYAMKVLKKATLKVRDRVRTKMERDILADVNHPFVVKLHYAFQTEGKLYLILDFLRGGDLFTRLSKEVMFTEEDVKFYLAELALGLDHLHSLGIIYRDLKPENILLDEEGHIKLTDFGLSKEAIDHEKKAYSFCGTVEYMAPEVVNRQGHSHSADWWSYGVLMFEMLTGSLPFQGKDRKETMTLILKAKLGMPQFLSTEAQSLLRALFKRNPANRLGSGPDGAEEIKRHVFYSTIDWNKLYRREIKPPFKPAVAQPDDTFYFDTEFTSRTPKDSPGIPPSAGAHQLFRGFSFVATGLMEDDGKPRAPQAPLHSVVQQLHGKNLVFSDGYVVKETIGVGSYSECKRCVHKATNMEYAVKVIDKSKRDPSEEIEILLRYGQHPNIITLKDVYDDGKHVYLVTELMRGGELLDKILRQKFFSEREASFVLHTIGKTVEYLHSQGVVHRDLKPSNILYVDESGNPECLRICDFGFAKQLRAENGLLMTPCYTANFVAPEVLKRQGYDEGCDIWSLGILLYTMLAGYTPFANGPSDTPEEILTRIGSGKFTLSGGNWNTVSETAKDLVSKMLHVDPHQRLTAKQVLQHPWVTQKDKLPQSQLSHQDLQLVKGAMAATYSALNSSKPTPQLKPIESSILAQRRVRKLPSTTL
CAMK2A, sequence (Q9UQM7 whole entry): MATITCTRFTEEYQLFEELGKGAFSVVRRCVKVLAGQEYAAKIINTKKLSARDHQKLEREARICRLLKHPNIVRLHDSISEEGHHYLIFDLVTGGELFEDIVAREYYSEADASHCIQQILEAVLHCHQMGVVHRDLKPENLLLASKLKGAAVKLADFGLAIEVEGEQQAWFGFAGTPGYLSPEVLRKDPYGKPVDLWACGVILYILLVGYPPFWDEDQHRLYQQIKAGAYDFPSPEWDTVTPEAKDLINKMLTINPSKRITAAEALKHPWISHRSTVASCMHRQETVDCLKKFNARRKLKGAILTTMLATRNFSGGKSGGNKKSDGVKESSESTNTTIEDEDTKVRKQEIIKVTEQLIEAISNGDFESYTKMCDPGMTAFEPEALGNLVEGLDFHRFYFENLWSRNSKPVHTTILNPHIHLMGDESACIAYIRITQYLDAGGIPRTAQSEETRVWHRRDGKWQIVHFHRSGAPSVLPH

c1ccc2c(c1)Sc1ccccc1N2CCN1CCOCC1 [J54]
remaining binding [1]: 92% | remaining binding [2]: 86% | remaining binding [3]: 98% | remaining binding [4]: 100% | remaining binding [5]: 78% | remaining binding [6]: 79% | remaining binding [7]: 100% | remaining binding [8]: 89% | remaining binding [9]: 96% | remaining binding [10]: 78% | remaining binding [11]: 100% | remaining binding [12]: 93% | remaining binding [13]: 100% | remaining binding [14]: 100% | remaining binding [15]: 100% | remaining binding [16]: 72% | remaining binding [17]: 100% | remaining binding [18]: 99%
